Data from patent US20140329766A1, “Prophylactic Compositions for Management of Microbial Infections in Patients with Brain Injury” (UTI LIMITED PARTNERSHIP, priority 2011, published 2014).

Key:
post-stroke infections = assay: Bacteriological analysis (CFU) of blood, lungs, liver and spleen after MCAO; format: in vivo, mice; conditions: for bacterial infections at 24 h after MCAO: wild-type mice receiving propranolol or 6-OHDA (FIGS. 44A-44D)
Description: Mice underwent the mid-cerebral artery occlusion (MCAO) model of cerebral ischemia-reperfusion injury as previously described (Connolly, Jr. et al., 1996; Wong et al., 2008). Male mice of 8-12 weeks old were anesthetized by intraperitoneal injection of a mixture of 10 mg/kg xylazine hydrochloride (MTC Pharmaceuticals, Cambridge, ON) and 200 mg/kg ketamine hydrochloride (Rogar/STB, London, ON). Body temperature was maintained at 37° C. using a heating pad and temperature regulator with rectal probe. Mice were randomly divided into 2 groups: (i) sham-operated, and (ii) MCAO-operated. All surgical instruments were sterilized before the surgery. Before any incision, the area was swabbed with ethanol. To induce MCAO, a 10-mm incision was made on the right-hand side of the neck. Then, the common carotid artery, external carotid artery, and internal carotid artery were dissected free. The external carotid artery was further dissected distally, then coagulated and cut to serve as a stump. After applying temporary clamps at the common carotid artery and internal carotid artery, a monofilament with a silicon coating diameter of 0.21-0.23 mm (Doccol Corporation, Redlands, Calif., USA) was inserted into the stump of the external carotid artery. The monofilament then advanced a defined distance (12 mm) so that the distal end of the monofilament came to rest across the origin of the MCA. The stump of external carotid artery was tied off. The wound on the neck of the mouse was sutured and the mouse was then transferred onto a heat pad to maintain its body temperature at 37° C. After 30 mins of occlusion, the monofilament was withdrawn to allow reperfusion to occur. The animal then recovered from the anaesthesia. Rehydration of the mice was performed every 4 h with a subcutaneous injection of electrolytes and glucose. Food pellets softened with water were placed in the cage after surgery as the mice recovered, and access to water was provided. Sham-operated animals were subjected to the initial anaesthetic and neck incision only. The animals were then allowed to recover from anaesthetic. All animals were put onto a 37° C. heat pad, post-surgery, to recover from anaesthesia until euthanized.
(§1) The anaesthetized mice from Example 1 were washed with 70% ethanol under sterile conditions. Blood was collected by cardiac puncture. The lungs, liver and spleen were removed after thoracotomy and homogenized. For determination of colony forming units (CFU), 10 μl of tissue homogenate or blood was serially diluted, plated onto brain heart infusion (BHI) agar plates supplemented with 5% sheep blood (Daylnn Biologicals, Alberta, Canada), incubated at 37° C. for 18 h, and bacterial colonies were counted.
as §1, with “Example 7” for “Example 1”

hepatic iNKT cells = assay: Spinning disk confocal intravital microscopy of the liver: crawling behaviour of GFP+ (iNKT) cells; format: in vivo, mice; conditions: post-ischemic Cxcr6gfp/+ mice 24 h after MCAO; for iNKT cell phenotype (cessation of crawling) induced by MCAO: propranolol 30 mg/kg at 4 and 8 h after MCAO, 6-OHDA 250 mg/kg i.p. 3 days prior (FIGS. 32-34)
Description: Murine liver intravital microscopy was performed as taught by Wong et al. (1997, A minimal role for selectins in the recruitment of leukocytes into the inflamed liver microvasculature. J. Clin. Invest. 99: 2782). Briefly, the tail vein of the anesthetized mice was cannulated to administer fluorescently labeled antibodies and/or additional anesthetic as required. Body temperature was maintained at 37° C. using an infrared heat lamp. Mice were placed in a right lateral position on an adjustable microscope stage. A lateral abdominal incision along the costal margin to the midaxillary line was made to exteriorize the liver, and all exposed tissues were moistened with saline-soaked gauze to prevent dehydration.
Cells were tracked using ImageJ software version 1.45 (NIH at http://rsb.info.nih.gov/ij/). Time-lapse videos exported from Volocity were imported as .mov file, and then converted to 8-bit grayscale. Fluorescent cells were adjusted using threshold control, and noise particles less than 2.0 pixels were removed by filter. Movement of cells was measured using manual tracking, and was calculated for each track using ImageJ output spreadsheets. The cell velocity was expressed in distance (μm) per time (min). 30-40 tracks from 10 mins videos of each animal in each experimental group were analyzed.
Excised livers were prepared for in vivo microscopic observation. Briefly, the liver was placed on the pedestal of an inverted microscope and the liver surface was then covered with a small piece of saline-soaked KimWipe to hold the organ in position. The liver microvasculature was visualized using a spinning-disk confocal microscopy and images were acquired with an Olympus IX81 inverted microscope using a ×10/0.40 UplanFL N objective. The microscope was equipped with a confocal light path (WaveFx, Quorum, Guelph, ON, CA) based on a modified Yokogawa CSU-10 head (Yokogawa Electric Corporation, Tokyo, Japan). Cxcr6^gfp/+ mice were used to visualize hepatic iNKT cells. Laser excitation wavelengths (Cobolt, Stockholm, Sweden) were used in rapid succession and visualized with the appropriate long-pass filters (Semrock, Rochester, N.Y.). Typical exposure time for each excitation wavelength was 300 milli-seconds. A 512×512 pixel back-thinned electron-multiplying charge-coupled device camera (C9100-13, Hamamatsu, Bridgewater, N.J.) was used for fluorescence detection. Volocity Acquisition software (Improvision) was used to drive the confocal microscope. […] Behaviors of iNKT cells in the hepatic microvasculature were assessed.
Wildtype mice underwent the MCAO procedure as previously described in Example 1. […] The crawling behaviours of crawling GFP+ cells in livers from sham-operated control mice and post-ischemic mice were observed and quantified using the methods disclosed in Example 2.

[1] = format: in vivo; conditions: post-ischemic Cxcr6gfp/+ mice (FIG. 37)
Description: Body temperature was maintained at 37° C. using a heating pad and temperature regulator with rectal probe. Mice were randomly divided into 2 groups: (i) sham-operated, and (ii) MCAO-operated. All surgical instruments were sterilized before the surgery. Before any incision, the area was swabbed with ethanol. To induce MCAO, a 10-mm incision was made on the right-hand side of the neck. Then, the common carotid artery, external carotid artery, and internal carotid artery were dissected free. The external carotid artery was further dissected distally, then coagulated and cut to serve as a stump. After applying temporary clamps at the common carotid artery and internal carotid artery, a monofilament with a silicon coating diameter of 0.21-0.23 mm (Doccol Corporation, Redlands, Calif., USA) was inserted into the stump of the external carotid artery. The monofilament then advanced a defined distance (12 mm) so that the distal end of the monofilament came to rest across the origin of the MCA. The stump of external carotid artery was tied off. The wound on the neck of the mouse was sutured and the mouse was then transferred onto a heat pad to maintain its body temperature at 37° C. After 30 mins of occlusion, the monofilament was withdrawn to allow reperfusion to occur. The animal then recovered from the anaesthesia. […]

[2] = Brain infarct size after MCAO; format: in vivo, mice; conditions: systemic propranolol or 6-OHDA (FIG. 36)
iNKT cells [3] = assay: Localized noradrenalin superfusion on the liver of Cxcr6gfp/+ mice; format: in vivo
Description: Alexa Fluor 647-conjugated rat anti-mouse PECAM-1 (clone 390; 1 μl) purchased from eBioscience (San Diego, Calif., USA) was mixed with the noradrenalin (5 μg; Sigma) to enable visualization of the epicentre of noradrenalin superfusion. Using intravital spinning-disk confocal microscopy, the behavior of iNKT cells was visualized and tracked in the epicentre of, and distant from the localized noradrenalin in the livers of Cxcr6^gfp/+ mice.

iNKT cells [4] = assay: In vitro noradrenalin activation of isolated iNKT cells; format: cell-based, mice
Description: After gentle agitation at 37° C. for 30 min, the concentrate was passed through a 40-μm nylon filter and washed twice with ice-cold PBS (pH 7.4) and centrifuged at 400×g for 10 min. Lymphocytes were purified on a 44%/70% Percoll gradient and were negatively selected with anti-Gr-1 (RB6-8C5; eBioscience), anti-F4/80 (BM8; eBioscience), anti-CD19 (1D3; eBioscience), and anti-CD8a (53-6.7; eBioscience) microbeads and MiniMACS column (Miltenyi Biotech) to remove neutrophils, macrophages, B cells, and CD8+ cells, respectively. A pure iNKT cell population consisting of TCRf3+ and GFP+ cells were sorted. Purity of isolated iNKT cells was >95%. iNKT cells were seeded at 5×10^5 cells into plasma-coated 6 cm clear flat glass bottom dishes and allowed to settle in DMEM containing 10% FCS for 1 h. To examine noradrenalin activation of iNKT cells in vitro, iNKT cells were either pretreated with 400 μM propranolol and then treated with 200 μM noradrenalin or the iNKT cells were subjected to 200 μM noradrenalin alone. The behavior of iNKT cells was visualized and recorded with FluoView FV1000 confocal fluorescence microscope (Olympus). The recorded images were randomized and analyzed by three blinded investigators.

[5] = tested on: intracellular IFNγ and IL-10 production; assay: Intracellular cytokine analysis by flow cytometry; format: in vivo; conditions: post-ischemic wild-type mice treated with propranolol (FIG. 48)
Description: For intracellular cytokine analysis, liver single cell suspensions from sham-operated and post-ischemic Cxcr6^gfp/+ mice were stained with PerCP-conjugated anti-CD69, washed with cold FWB, resuspended in Cytofix/Cytoperm (BD Bioscience) for 30 min on ice. Samples were washed in Perm/Wash (BD Bioscience) and then stained with Alexa Fluor 450-conjugated anti-IFNγ (XMG1.2, eBioscience) and PE-conjugated anti-IL-4 (11B11, BD Pharmingen) or PE-conjugated anti-IL-10 (JESS-16E3, eBioscience).

[6] = 5 μg, liver of Cxcr6gfp/+ mice (FIGS. 38-40)

NCCc1cc(O)c(O)cc1O [Formula 6-OHDA, 6-hydroxydopamine]
bacterial infections at 24 h after MCAO (post-stroke infections): significantly reduced | iNKT cell phenotype (cessation of crawling) induced by MCAO (hepatic iNKT cells): completely inhibited | Mortality at 24 h of reperfusion [1]: 50% | infarct size in post-ischemic mice [2]: did not alter

apyrase
iNKT cell arrest in response to MCAO (hepatic iNKT cells; treatment just prior to MCAO (FIGS. 29, 30)): no effect

NC[C@H](O)c1ccc(O)c(O)c1 [noradrenaline]
crawling behavior of iNKT cells in an area of liver distant from the superfusion (iNKT cells [3]; 5 μg (FIGS. 38-40)): did not alter | crawling iNKT cells in the epicenter of noradrenaline administration (iNKT cells [3]; [6]): Significantly fewer iNKT cells crawled | pirouetting iNKT cells in the epicenter of noradrenaline administration (iNKT cells [3]; [6]): more cells adopted a pirouetting phenotype | iNKT cell morphology in vitro (iNKT cells [4]; 200 μM noradrenalin alone (FIG. 41)): developed a pseudopod-protruding phenotype

CC(C)NCC(O)COc1cccc2ccccc12 (stereo not shown) [propranolol]
intracellular IL-10 versus IFN-γ production [5]: reversed the preference for intracellular IL-10 production back to an intracellular IFN-γ dominant production | protection from infection (bacterial loads in peripheral blood and lungs) (post-stroke infections; post-ischemic Cd1d-/- mice (FIG. 46)): no protection | bacterial infections at 24 h after MCAO (post-stroke infections): significantly reduced | iNKT cell phenotype (cessation of crawling) induced by MCAO (hepatic iNKT cells): reversed | infarct size in post-ischemic mice [2]: did not alter | noradrenaline-induced behavioral change of iNKT cells in vitro (iNKT cells [4]; pretreatment 400 μM propranolol, then 200 μM noradrenalin (FIG. 42)): inhibited

B1: recombinant IL-10: Recombinant IL-10 (Cedarlane), a TH2-type cytokine (protein, UniProt P18893 19-178, looked up)
Interleukin-10: SRGQYSREDNNCTHFPVGQSHMLLELRTAFSQVKTFFQTKDQLDNILLTDSLMQDFKGYLGCQALSEMIQFYLVEVMPQAEKHGPEIKEHLNSLGEKLKTLRMRLRRCHRFLPCENKSKAVEQVKSDFNKLQDQGVYKAMNEFDIFINCIEAYMMIKMKS
stroke-induced lung infections (bacterial load in the lungs) (post-stroke infections; wild-type mice pretreated i.v. 1 h prior to MCAO, 1 μg/mouse (FIG. 22)): increased
